Measurements from patent US20160220569A1, “CDK4/6 Inhibitor Dosage Formulations For The Protection Of Hematopoietic Stem And Progenitor Cells During Chemotherapy” (G1 Therapeutics, Inc., priority 2015, published 2016).
Where two headings read alike, the source gives them in different places.

Columns and labels:
[1] = Compound 1 PK dosed Days 1-5 with topotecan; assay type: in vivo, human; conditions: human, plasma, intravenous
Method: Analysis of plasma concentration versus time data for calculation of standard pharmacokinetic (PK) parameters following intravenous infusion administration was conducted using Phoenix WinNonlin version 6.3 using a nominal infusion duration and scheduled blood sampling times.

[2] = 3-compartment model pharmacokinetic analysis, Cohorts 5 and 6; assay type: in vivo, human; conditions: for half-life: read-out: γ phase half-life averaged (converted)
Description: The concentration-time profile is represented by a tri-exponential equation similar to the following: […]
Where A, B, and C are the ‘macroconstants’ which are a function of the dose, volume of distribution and the ‘microconstants’ (K12, K21, K13, K31, and K10).
Five of these parameters are rate constants and the 6th is the volume of distribution of the central compartment (V1).

[3] = Cohort 5, 96 mg/m^2, 3-compartment primary parameter, subjects 1-6, Mean, Median, mean

## CN1CCN(c2ccc(Nc3ncc4cc5n(c4n3)C3(CCCCC3)CNC5=O)nc2)CC1 [Compound 1, 2′-((5-(4-methylpiperazin-1-yl)pyridin-2-yl)amino)-7′,8′-dihydro-6′H-spiro[cyclohexane-1,9′-pyrazino[1′,2′:1,5]pyrrolo[2,3-d]pyrimidin]-6′-one]
[1]; 200 mg/m^2 with Topotecan 1.25 mg/m^2 (Cohort 2), Day 1, Geo. Mean, read-out: Cmax
  Cmax: 895 ng/mL
[1]; 200 mg/m^2 with Topotecan 1.25 mg/m^2 (Cohort 2), Day 1, Geo. Mean, read-out: t½ (converted)
  half-life: 7.77 h
[1]; 200 mg/m^2 with Topotecan 1.25 mg/m^2 (Cohort 2), Day 1, Mean, read-out: AUCinf
  AUC(0-inf): 2490 ng·h/mL
[1]; 200 mg/m^2 with Topotecan 1.25 mg/m^2 (Cohort 2), Day 1, Mean, read-out: t½ (converted)
  half-life: 7.87 h
[1]; 200 mg/m^2 with Topotecan 1.25 mg/m^2 (Cohort 2), Day 1, Median, read-out: AUCinf
  AUC(0-inf): 2430 ng·h/mL
[1]; 200 mg/m^2 with Topotecan 1.25 mg/m^2 (Cohort 2), Day 1, Median, read-out: t½ (converted)
  half-life: 8.67 h
[1]; 200 mg/m^2 with Topotecan 1.25 mg/m^2 (Cohort 2), Day 1, individual subjects, read-out: AUCinf
  AUC(0-inf): 2320 ng·h/mL
[1]; 200 mg/m^2 with Topotecan 1.25 mg/m^2 (Cohort 2), Day 1, individual subjects, read-out: Cmax
  Cmax: 1000 ng/mL
[1]; 200 mg/m^2 with Topotecan 1.25 mg/m^2 (Cohort 2), Day 1, individual subjects, read-out: t½ (converted)
  half-life: 6.14 h
[1]; 200 mg/m^2 with Topotecan 1.25 mg/m^2 (Cohort 2), Day 4, Geometric Mean, read-out: Cmax
  Cmax: 739 ng/mL
[1]; 200 mg/m^2 with Topotecan 1.25 mg/m^2 (Cohort 2), Day 4, Geometric Mean, read-out: t½ (converted)
  half-life: 8.84 h
[1]; 200 mg/m^2 with Topotecan 1.25 mg/m^2 (Cohort 2), Day 4, Mean, read-out: Cmax
  Cmax: 752 ng/mL
[1]; 200 mg/m^2 with Topotecan 1.25 mg/m^2 (Cohort 2), Day 4, Mean, read-out: t½ (converted)
  half-life: 8.95 h
[1]; 200 mg/m^2 with Topotecan 1.25 mg/m^2 (Cohort 2), Day 4, Median, read-out: t½ (converted)
  half-life: 9.1 h
[1]; 200 mg/m^2 with Topotecan 1.25 mg/m^2 (Cohort 2), Day 4, individual subjects, read-out: Cmax
  Cmax: 904 ng/mL
[1]; 200 mg/m^2 with Topotecan 1.25 mg/m^2 (Cohort 2), Day 4, individual subjects, read-out: t½ (converted)
  half-life: 7.15 h
[1]; 200 mg/m^2 with Topotecan […]^2 (Cohort 1), Day 1, Geo. Mean, read-out: AUCinf
  AUC(0-inf): 2120 ng·h/mL
[1]; 200 mg/m^2 with Topotecan […]^2 (Cohort 1), Day 1, Geo. Mean, read-out: Cmax
  Cmax: 932 ng/mL
[1]; 200 mg/m^2 with Topotecan […]^2 (Cohort 1), Day 1, Geo. Mean, read-out: t½ (converted)
  half-life: 5.91 h
[1]; 200 mg/m^2 with Topotecan […]^2 (Cohort 1), Day 1, Mean, read-out: AUCinf
  AUC(0-inf): 2140 ng·h/mL
[1]; 200 mg/m^2 with Topotecan […]^2 (Cohort 1), Day 1, Mean, read-out: Cmax
  Cmax: 955 ng/mL
[1]; 200 mg/m^2 with Topotecan […]^2 (Cohort 1), Day 1, Mean, read-out: t½ (converted)
  half-life: 5.92 h
[1]; 200 mg/m^2 with Topotecan […]^2 (Cohort 1), Day 1, Median, read-out: AUCinf
  AUC(0-inf): 2140 ng·h/mL
[1]; 200 mg/m^2 with Topotecan […]^2 (Cohort 1), Day 1, Median, read-out: Cmax
  Cmax: 955 ng/mL
[1]; 200 mg/m^2 with Topotecan […]^2 (Cohort 1), Day 1, Median, read-out: t½ (converted)
  half-life: 5.92 h
[1]; 200 mg/m^2 with Topotecan […]^2 (Cohort 1), Day 1, individual subjects, read-out: AUCinf
  AUC(0-inf): 1840 ng·h/mL
[1]; 200 mg/m^2 with Topotecan […]^2 (Cohort 1), Day 1, individual subjects, read-out: t½ (converted)
  half-life: 5.6 h
[1]; 200 mg/m^2 with Topotecan […]^2 (Cohort 1), Day 4, Geometric Mean, read-out: Cmax
  Cmax: 993 ng/mL
[1]; 200 mg/m^2 with Topotecan […]^2 (Cohort 1), Day 4, Geometric Mean, read-out: t½ (converted)
  half-life: 7.98 h
[1]; 200 mg/m^2 with Topotecan […]^2 (Cohort 1), Day 4, Mean, read-out: Cmax
  Cmax: 999 ng/mL
[1]; 200 mg/m^2 with Topotecan […]^2 (Cohort 1), Day 4, Mean, read-out: t½ (converted)
  half-life: 8.06 h
[1]; 200 mg/m^2 with Topotecan […]^2 (Cohort 1), Day 4, Median, read-out: Cmax
  Cmax: 999 ng/mL
[1]; 200 mg/m^2 with Topotecan […]^2 (Cohort 1), Day 4, Median, read-out: t½ (converted)
  half-life: 8.06 h
[1]; 200 mg/m^2 with Topotecan […]^2 (Cohort 1), Day 4, individual subjects, read-out: t½ (converted)
  half-life: 6.96 h
[1]; Cohort 1 (Topotecan […]^2), Compound 1 200 mg/m^2, Day 1, mean, read-out: AUCinf averaged
  AUC(0-inf): 2140 ng·h/mL
[1]; Cohort 1 (Topotecan […]^2), Compound 1 200 mg/m^2, Day 1, mean, read-out: Cmax averaged
  Cmax: 955 ng/mL
[1]; Cohort 1 (Topotecan […]^2), Compound 1 200 mg/m^2, Day 1, mean, read-out: Half-lives averaged (converted)
  half-life: 5.92 h
[1]; Cohort 1 (Topotecan […]^2), Compound 1 200 mg/m^2, Day 4, mean, read-out: Half-lives averaged (converted)
  half-life: 8.06 h
[1]; Cohort 1 (Topotecan […]^2), Compound 1 200 mg/m^2, Day 4, mean, read-out: average Cmax
  Cmax: 999 ng/mL
[1]; Cohort 2 (Topotecan 1.25 mg/m^2), Compound 1 200 mg/m^2, Day 1, mean, read-out: AUCinf averaged
  AUC(0-inf): 2490 ng·h/mL
[1]; Cohort 2 (Topotecan 1.25 mg/m^2), Compound 1 200 mg/m^2, Day 1, mean, read-out: Cmax averaged
  Cmax: 904 ng/mL
[1]; Cohort 2 (Topotecan 1.25 mg/m^2), Compound 1 200 mg/m^2, Day 1, mean, read-out: Half-lives averaged (converted)
  half-life: 7.87 h
[1]; Cohort 2 (Topotecan 1.25 mg/m^2), Compound 1 200 mg/m^2, Day 4, mean, read-out: Half-lives averaged (converted)
  half-life: 8.95 h
[1]; Cohort 2 (Topotecan 1.25 mg/m^2), Compound 1 200 mg/m^2, Day 4, mean, read-out: average Cmax
  Cmax: 752 ng/mL
[1]; Cohort 2 (Topotecan 1.25 mg/m^2), Day 1, mean, read-out: concentration at 24.5 hours after the start of infusion, averaging
  concentration at 24.5 h: 19.5 ng/mL
[1]; Cohort 2 (Topotecan 1.25 mg/m^2), Day 4, mean, read-out: concentration at 24.5 hours after dosing, averaged
  concentration at 24.5 h: 22.7 ng/mL
[1]; Cohort 3 (Topotecan 0.75 mg/m^2), Compound 1 200 mg/m^2, Day 1, mean, read-out: AUCinf averaged
  AUC(0-inf): 2200 ng·h/mL
[1]; Cohort 3 (Topotecan 0.75 mg/m^2), Compound 1 200 mg/m^2, Day 1, mean, read-out: Cmax averaged
  Cmax: 1140 ng/mL
[1]; Cohort 3 (Topotecan 0.75 mg/m^2), Compound 1 200 mg/m^2, Day 1, mean, read-out: Half-lives averaged (converted)
  half-life: 7.4 h
[1]; Cohort 3 (Topotecan 0.75 mg/m^2), Compound 1 200 mg/m^2, Day 4, mean, read-out: Half-lives averaged (converted)
  half-life: 8.81 h
[1]; Cohort 3 (Topotecan 0.75 mg/m^2), Compound 1 200 mg/m^2, Day 4, mean, read-out: average Cmax
  Cmax: 1330 ng/mL
[1]; Cohort 3 (Topotecan 0.75 mg/m^2), Day 1, mean, read-out: concentration at 24.5 hours after the start of infusion, averaging
  concentration at 24.5 h: 13.3 ng/mL
[1]; Cohort 3 (Topotecan 0.75 mg/m^2), Day 4, mean, read-out: concentration at 24.5 hours after dosing, averaged
  concentration at 24.5 h: 18.2 ng/mL
[2]; [3]
  Beta: 0.388 h⁻¹
  Gamma: 0.0502 h⁻¹
  K31: 0.0692 h⁻¹
[2]; both sexes, human, plasma, intravenous, 96 mg/m2, Cohort 5, 96 mg/m^2, 3-compartment secondary (derived) parameter, six subjects, Mean, Median, read-out: Cmax
  Cmax: 991 ng/mL
[2]; both sexes, human, plasma, intravenous, 96 mg/m2, 96 mg/m^2, 3-compartment model, mean
  half-life: 14.2 h
[2]; both, human, plasma, intravenous, […]2
  half-life: 14 h
